Test results reported in patent US5840728A, “Conformationally locked nucleoside analogs as antiherpetic agents” (priority 1997, dated 1998).
In brackets after ≈: the same amount, converted by molar mass. Where two headings read alike, the source gives them in different places. One block for each compound: values may come before it.

Legend:
[1] = Cytotoxicity in EBV host cells (Daudi); type: cell-based; details: human
[2] = system: HCMV (human cytomegalovirus); assay: microbe, parasite or virus in culture; type: cell-based; details: for EC50: Human betaherpesvirus 5, Table 5, HCMV, plaque reduction assay
From the text: | ^f plaque reduction assay.

[3] = Cytotoxicity in host cells / stationary cells (HFF); type: cell-based, human; details: human, hff cells
From the text: (§1) ^d CC50 = cytotoxic concentration in μg/mL that produces 50%

[4] = system: adenosine deaminase (ADA); assay: Adenosine deaminase studies (deamination by ADA); type: biochemical
Experimental: (§2) At timed intervals, 50 µl aliquots were quenched with 450 μl water containing the ADA inhibitor deoxycoformycin (4 μM). Hydrolysis kinetics of 4 were followed by high performance liquid chromatography (HPLC) with on-the-fly UV spectral characterization of all chromatographic components. […] The hydrolysis rate constant (k/ADA) and t^1/2 of decay or formation were obtained using GraphPAD Inpiot curve fitting program.

[5] = Adenosine deaminase studies (deamination by ADA); type: biochemical; details: adenosine deaminase; 50 μM compound; 1.0 unit ADA; 37° C., pH 7.1; read-out: t1/2 of deamination
Experimental: as §2

[6] = system: HSV-1 (herpes simplex type 1); assay: microbe, parasite or virus in culture; details: for EC50: HSV-1; for activity against HSV-1: in words
From the text: (§3) Compounds 25 and 26 are (S)-methanocarba-T and (±)-(carba-T), respectively. (±)-carba-T was kindly provided by Dr. Y. Fulmer Shealy, Southern Research Institute, Birmingham, Ala. [drawing 5]

[7] = system: HSV-2 (herpes simplex type 2); assay: microbe, parasite or virus in culture; details: for EC50: HSV-2; for activity against HSV-2: in words
From the text: as §3

[8] = system: HCMV (human cytomegalovirus); assay: microbe, parasite or virus in culture; type: cell-based
Growing HFF = assay: Cytotoxicity in growing (rapidly dividing) HFF; type: cell-based, human; details: in words; rapidly proliferating vs stationary cells
[9] = Cytotoxicity in growing (rapidly dividing) HFF; type: cell-based, human; details: human, growing hff cells, read-out: CC50
[10] = system: S-adenosylhomocysteine hydrolase (AdoHcy-ase); assay: Inhibition of S-adenosylhomocysteine hydrolase; type: biochemical
EBV (Epstein-Barr virus) = assay: microbe, parasite or virus in culture; type: cell-based; details: for EC50: human gammaherpesvirus 4, read-out: EC50; for anti-EBV activity relative to acyclovir / EC50: EBV; for activity against EBV: in words
From the text: as §3

herpes viruses = assay: Antiherpetic activity, overall; type: cell-based; details: in words
[11] = system: HFF (human foreskin fibroblasts); assay: Cytotoxicity in host cells / stationary cells (HFF); type: cell-based; details: Table 5; host cell not given; listed as (N)-DMC-G
From the text: as §1

[12] = Human alphaherpesvirus 1, Table 5
[13] = Human alphaherpesvirus 2, Table 5
[14] = Human betaherpesvirus 5, Table 5, HCMV, read-out: EC50

EC50 ([6]; Human alphaherpesvirus 1, Table 4, plaques reduced by 50%): 0.01 µg/mL (≈ 0.0396 µM) | EC50 ([7]; Human alphaherpesvirus 2, Table 4, plaques reduced by 50%): 0.12 µg/mL (≈ 0.476 µM) | EC50 (EBV (Epstein-Barr virus); Table 4): 0.45 µg/mL (≈ 1.78 µM)
SMILES: Cc1cn([C@H]2C[C@H](O)[C@]3(CO)C[C@H]23)c(=O)[nH]c1=O [Compound 20]
CC50 ([1]; Table 4, EBV line, host cell not given): > 100 µg/mL | CC50 ([3]; Table 4, HSV-1 and HSV-2 lines, host cell not given): > 20 µg/mL | CC50 ([3]; stationary cells): > 100 µg/mL | activity relative to acyclovir (herpes viruses; HSV-1 and HSV-2): stronger than observed with acyclovir | SI (CC50/EC50) [6]: > 2000 | activity against HSV-1 [6]: strong activity | activity against HSV-1 ([6]; listed as N-methanocarba-T): effective against HSV-1, HSV-2 and EBV | SI (CC50/EC50) [7]: > 167 | activity against HSV-2 [7]: strong activity | activity against HSV-2 ([7]; listed as N-methanocarba-T): effective against HSV-1, HSV-2 and EBV | CC50 ([9]; rapidly dividing cells): 32.9 µg/mL (≈ 130 µM) | SI (CC50/EC50) (EBV (Epstein-Barr virus)): > 222 | anti-EBV activity relative to acyclovir (EBV (Epstein-Barr virus)): not as strong as ACV | activity against EBV (EBV (Epstein-Barr virus)): significant anti-EBV activity | activity against EBV (EBV (Epstein-Barr virus); listed as N-methanocarba-T): effective against HSV-1, HSV-2 and EBV

EC50 [6, 12]: > 100 µg/mL | EC50 [7, 13]: > 100 µg/mL | EC50 [8, 14]: > 100 µg/mL
SMILES: O=c1ccn([C@H]2C[C@H](O)[C@]3(CO)C[C@H]23)c(=O)[nH]1 [Compound 21, (1R,2S,4S,5S)-1-(Hydroxymethyl)-2-hydroxy-4-(2,4-(1H,3H)-dioxopvrimidin-1-yl)bicyclor3.1.Olhexane]
CC50 ([3]; Table 5, host cell not given): > 100 µg/mL | SI (CC50/EC50) [6]: 1 | activity against HSV-1 [6]: inactive against all three viruses | SI (CC50/EC50) [7]: 1 | activity against HSV-2 [7]: inactive against all three viruses | SI (CC50/EC50) [8]: 1 | activity against HCMV ([8]; in words): inactive against all three viruses

EC50 [6, 12]: 0.14 µg/mL (≈ 0.59 µM) | EC50 [7, 13]: > 20 µg/mL | EC50 [8, 14]: > 4 µg/mL
SMILES: Nc1ccn([C@H]2C[C@H](O)[C@]3(CO)C[C@H]23)c(=O)n1 [Compound 22]
SI (CC50/EC50) [6]: 486 | activity against HSV-1 [6]: very active against HSV-1 | SI (CC50/EC50) [7]: < 4.8 | activity against HSV-2 [7]: Little activity | SI (CC50/EC50) [8]: < 2.2 | activity against HCMV ([8]; in words): active against HCMV

EC50 [6, 12]: 4 µg/mL (≈ 14.4 µM) | EC50 [7, 13]: 9.9 µg/mL (≈ 35.7 µM) | EC50 [8, 14]: > 20 µg/mL
SMILES: Nc1nc2c(ncn2[C@H]2C[C@H](O)[C@]3(CO)C[C@H]23)c(=O)[nH]1 [Compound 24]
CC50 [11]: 64.3 µg/mL (≈ 232 µM) | CC50 ([3]; Table 5, host cell not given): > 100 µg/mL | SI (CC50/EC50) [6]: > 25 | activity against HSV-1 [6]: active against HSV-1 and HSV-2 | SI (CC50/EC50) [7]: > 10.1 | activity against HSV-2 [7]: active against HSV-1 and HSV-2 | SI (CC50/EC50) [8]: < 3.2 | activity against HCMV ([8]; in words): little activity against HCMV

Second part, the compound before the results:

SMILES: Nc1ncnc2c1ncn2[C@H]1C[C@H](O)[C@]2(CO)C[C@H]12 [Compound 4, (1 R,2S,4S,5S)-1-Hydroxymethyl-2-hydroxM-4-(6-amino-9-purinyl)bicyclo[3.1.0]hexane]
CC50 ([1]; Table 3, Daudi): > 100 µg/mL | EC50 ([2]; read-out: EC50): 5.6 µg/mL (≈ 21.4 µM) | SI (CC50/EC50) ([2]; human foreskin fibroblasts): > 17.9 | CC50 ([3]; Table 3, HFF): > 100 µg/mL | CC50 ([3]; Table 5, host cell not given): > 100 µg/mL | time to complete deamination ([4]; 50 μM compound, 1.0 unit ADA, 37° C., pH 7.1): 30 min | deamination by ADA ([4]; in words): complete deamination | half-life at 50 µM [5]: 3.2 min | SI (CC50/EC50) [6]: > 1.4 | EC50 ([6]; Human alphaherpesvirus 1, Table 3, HFF): 72 µg/mL (≈ 276 µM) | EC50 [6, 12]: 72 µg/mL (≈ 276 µM) | activity against HSV-1 [6]: weak level of activity | SI (CC50/EC50) [7]: > 7.2 | EC50 ([7]; Human alphaherpesvirus 2, Table 3, HFF): 13.9 µg/mL (≈ 53.2 µM) | EC50 [7, 13]: 13.9 µg/mL (≈ 53.2 µM) | activity against HSV-2 ([7]; listed as (N)-methanocarba-A): exhibited antiviral effects against Human CMV, EBV and HSV-2 | SI (CC50/EC50) [8]: > 32.2 | potency against HCMV relative to gancyclovir ([8]; HCMV): only ten fold less potent than gancyclovir | antiviral selectivity ([8]; HCMV, compared with gancyclovir, in words): superibor to that of gancyclovir | EC50 ([8]; Human betaherpesvirus 5, Table 3, HCMV, HFF, read-out: EC50): 3.1 µg/mL (≈ 11.9 µM) | EC50 [8, 14]: 3.1 µg/mL (≈ 11.9 µM) | EC50 ([8]; Human betaherpesvirus 5, text, HCMV, read-out: EC50): 3.1 µg/mL (≈ 11.9 µM) | activity against HCMV ([8]; in words, listed as (N)-methanocarba-A): exhibited antiviral effects against Human CMV, EBV and HSV-2 | cytotoxicity to rapidly dividing cells (Growing HFF): equally non-toxic to rapidly proliferating cells and stationary cells | CC50 ([9]; Table 3, Growing HFF): > 100 µg/mL | inhibition ([10]; at 100 μM): 20% | inhibition ([10]; at 100 FM concentration (so in the source)): 20% | activity against AdoHcy-ase ([10]; in words): very low | SI (CC50/EC50) (EBV (Epstein-Barr virus)): > 66.7 | anti-EBV activity relative to acyclovir (EBV (Epstein-Barr virus)): only fifteen fold weaker than acyclovir | EC50 (EBV (Epstein-Barr virus)): 1.5 µg/mL (≈ 5.74 µM) | EC50 (EBV (Epstein-Barr virus); Table 3, Daudi, viral capsid antigen): 1.5 µg/mL (≈ 5.74 µM) | activity against EBV (EBV (Epstein-Barr virus); listed as (N)-methanocarba-A): exhibited antiviral effects against Human CMV, EBV and HSV-2

SMILES: Cc1cn([C@@]23C[C@H](O)[C@@H](CO)[C@@H]2C3)c(=O)[nH]c1=O [Compound 25, (S)-methanocarba-T, reference compound]
CC50 ([3]; stationary cells): > 100 µg/mL | antiherpetic activity (herpes viruses): did not exhibit antiherpetic activity | SI (CC50/EC50) [6]: 1 | SI (CC50/EC50) [7]: 1 | CC50 ([9]; rapidly dividing cells): > 100 µg/mL

SMILES: Nc1nc(O)c2ncn(COC(CO)CO)c2n1 [GCV, gancyclovir]
EC50 ([2]; control, read-out: Control EC50): 0.2 µg/mL (≈ 0.784 µM) | EC50 ([8]; Human betaherpesvirus 5, Table 3, HCMV, HFF, positive control, read-out: Positive Control EC50): 0.3 µg/mL (≈ 1.18 µM) | cytotoxicity to rapidly dividing cells (Growing HFF): increased cytotoxicity towards rapidly dividing cells | CC50 ([9]; rapidly dividing cells): 40 µg/mL (≈ 157 µM)
